Reference: article PMC11239005, “Preclinical studies of RA475, a guanidine-substituted spirocyclic candidate RPN13/ADRM1 inhibitor for treatment of ovarian cancer” (PLOS ONE, 2024)
“And” between values parts separate entries of the source, which are not always exact repeats. Equal entries are not always repeated. Structures can show the parent of a compound that is named as a salt.

How the values were obtained:
[1] = cited from earlier work
[2] = LogD measurement, shake-flask octanol/PBS pH 7.4; format: physicochemical; conditions: octanol/PBS pH 7.4, single injections 1-3
Procedure: Incubations were carried out in Eppendorf-type polypropylene microtubes in triplicates. A 2.5 μL aliquot of 20 mM DMSO stock of a test compound was added into the previously mutually saturated mixture containing 500 μL of PBS (pH 7.4) and 500 μL of octanol. The solution was allowed to mix in a rotator for 1 hour at 30 rpm. Phase separation was assured by centrifugation for 2 min at 6000 rpm. The octanol phase was diluted 100-fold with 40% acetonitrile, and the aqueous phase (PBS buffer) was diluted 10-fold. The samples (both phases) were analyzed using an HPLC system coupled with a tandem mass spectrometer. […] Calculations of the partition ratios were carried out using the equation below. D=do.So/dp.Sp where:
So–peak area of the analyte in octanol phase
SP–peak area of the analyte in PBS buffer
do–dilution coefficient for octanol phase

PEA1 cells = assay: MTT cytotoxicity assay, PEA1; format: cell-based, human; conditions: Homo sapiens, PEA1, 72 h
Procedure: (§1) All cell lines were obtained from the American Type Culture Collection (ATCC) and cultured in the specified medium supplemented with 10% fetal bovine serum, 100 IU/mL penicillin, and 100 μg/mL streptomycin at 37°C in a humidified 5% CO2/95% air incubator. Synthesis of new compounds is described in S1 File, and >95% purity of RA475, Up284 and its analogs were confirmed by NMR and MS. To assess drug cytotoxicity, cells were seeded at 2,500 cells/well (10,000 cells/well for MM lines) in 100 μL medium in 96-well plate as triplicates and after 24 h treated with compounds for a further 72 h. To assess cytotoxicity, the cells were incubated for 2 h at 37°C according to the manufacturer’s protocol with the Thiazolyl Blue Tetrazolium Bromide (20 μL/well of 5 mg/mL stock solution in water) (Sigma, M5655) and A570 measured using a Benchmark Plus microplate spectrophotometer (BIO-RAD). IC50 was estimated using Graphpad Prism 7 software.
(§2) Modifications of Up284 were sought to improve its drug-like properties without significant compromise of its activity in vivo, and several new compounds were synthesized (S1 File). Based on our prior studies of its pharmacophore, the central ring nitrogen was the most logical for addition of charged moieties, including RA475 and RA484. We also examined a change to either 3,4 spiro rings (RA477, RA479), or addition of 3-Fluoro substitutions (RA482) (S1 File). Our focus is developing iRPN13 to treat ovarian cancer resistant to standard of care drug regimens.
A wash-out experiment was performed to assess reversibility of the toxicity. PEA1 cells were treated with RA475 for 1 h before the medium was replaced with fresh culture medium, and the cells were then allowed to grow for another 71 hours (PEA1-WO). In parallel, PEA1 cells were incubated with RA475 continuously for 72 h. […] Possible reasons include slow uptake of RA475, reversible binding and neutralization by antioxidants in the medium.
To study the effect of RA475 in combination with approved therapeutics (DNA damaging agents or radiation) an MTT assay was performed using various concentrations of both drugs. Briefly PEA1 and OVCAR3 cells were each treated with drug combination (RA475 plus cisplatin) for 72 h in a checker board analysis and cell viability was measured using MTT assay. The data were analyzed and plotted using the Synergy Finder web application.

PEA2 = assay: MTT cytotoxicity assay, PEA2; format: cell-based; conditions: Homo sapiens; PEA2, 72 h, MTT; read-out: IC50
Procedure: as §1, §2

[3] = system: spontaneous genetically-engineered peritoneal tumor (shp53, AKT, c-Myc); assay: Spontaneous GEMM of primary peritoneal/ovarian cancer; format: in vivo, mouse; conditions: C57BL/6; RA475 40 mg/kg IP every 3 days (12 doses); cisplatin 5 mg/Kg weekly (5 doses alone, 3 in combination)
Procedure: To induce IP tumor formation in immunocompetent mice, oncogenes (shp53, AKT, c-Myc), luciferase and the Sleeping Beauty (SB) transposase (10 μg/plasmid) were diluted in 500 μL of PBS and injected IP into female C57BL/6 mice. The mice were anesthetized by intramuscular injection of 50–100μL of a cocktail of ketamine 16 mg/mL / 3 mg/mL xylazine. The plasmid-injected mice were electroporated (EP) by the BTX ECM 830 square wave EP generator (BTX) (5 pulses, 200 V for 100 ms/pulse, 100 ms intervals between each pulse) with the caliper electrode (BTX) held across the waist of mouse. The mice were followed by IVIS imaging weekly for tracking tumor growth. The mice were sacrificed when the bioluminescence signal reached 10^9 photons/sec/cm^2/sr, or had enlarged abdomens due to the production of ascites, or had health conditions and/or criteria under which early euthanasia was required by the protocol. To track peritoneal tumor growth, bioluminescence imaging was performed by the IVIS Spectrum2000 (PerkinElmer) as the plasmid expressing SB transposase also produces luciferase. Briefly, the mice were injected IP with D-luciferin (GoldBio). After 10 min, the mice were anesthetized with isoflurane, and imaged by the IVIS Spectrum under the auto exposure mode. Bioluminescence in the peritoneal region was quantified as total photon counts/sec/cm^2/sr using Living Image 3.0 Software (Perkin Elmer).
GEMM better mimic the spontaneous development of cancers in an immune competent host than transplantable tumor lines. Female C57BL/6 mice were co-injected IP with sleeping beauty vector and plasmids expressing carrying shp53, AKT, c-Myc and firefly luciferase genes, followed by electroporation (EP) to deliver these plasmid DNA into the peritoneal cavity cells wherein they integrate randomly into their genome. After 7 days mice were imaged by IVIS200 for bioluminescence and randomized. Four groups (n = 8) were treated IP with vehicle or RA475 (40mg/kg, IP, every 3 days) or Cisplatin (5 mg/Kg, once a week) or the combination of RA475 (40mg/Kg, IP, every 3 days) plus Cisplatin (5 mg/Kg, once a week). […] While cisplatin reduced tumor growth, it led to severe toxicity including weight loss >20% that was not evident with RA475 alone.
Fig 7 Administration of RA475, cisplatin or the combination to mice bearing spontaneous, genetically-engineered model ovarian/peritoneal cancer. Female C57BL/6 mice were co-injected IP with sleeping beauty vector and plasmids expressing carrying shp53, AKT, c-Myc and firefly luciferase genes, followed by electroporation (EP) to deliver these plasmid DNA into the peritoneal cavity cells wherein they integrate randomly into their genome. After 7 days mice were imaged by Xenogen IVIS200 for bioluminescence and randomized. […]

In the case of `CC(C)C[C@H](NC(=O)[C@H](CCc1ccccc1)NC(=O)CN1CCOCC1)C(=O)N[C@@H](Cc1ccccc1)C(=O)N[C@@H](CC(C)C)C(=O)[C@@]1(C)CO1` [Carfilzomib, carfilzomib], the “access to the brain” value [1] is listed as “mostly excluded from the brain”.
For `COC(=O)Nc1nc2ccc(C(=O)c3ccccc3)cc2[nH]1` [Mebendazole], the D [2] was 8.61E+02 and 8.97E+02 and 8.85E+02.
With `N#Cc1ccc(/C=C2/C(=O)/C(=C/c3ccc(C#N)cc3)C23CCN(C(=N)N)C3)cc1` [RA477, 1,3-bis((E)-4-cyanobenzylidene)-2-oxo-6-azaspiro[3.4]octane-6-carboximidamide dihydrochloride] the IC50 (PEA1 cells) was 331 nM and the IC50 (PEA2) was 312 nM.
With `N#Cc1ccc(/C=C2/C(=O)/C(=C/c3ccc(C#N)c(F)c3)C23CCN(C(=N)N)C3)cc1F` [RA479, 1,3-bis((E)-4-cyano-3-fluorobenzylidene)-2-oxo-6-azaspiro[3.4]octane-6-carboximidamide dihydrochloride] the IC50 (PEA1 cells) was 350 nM and the IC50 (PEA2) was 320 nM.
Molecule `N#Cc1ccc(/C=C2/C(=O)/C(=C/c3ccc(C#N)c(F)c3)C23CCN(C(=N)N)CC3)cc1F` [RA482, 1,3-bis((E)-4-cyano-3-fluorobenzylidene)-2-oxo-7-azaspiro[3.5]nonane-7-carboximidamide dihydrochloride] has an IC50 (PEA1 cells) of 396 nM and an IC50 (PEA2) of 410 nM.
Molecule `N#Cc1ccc(/C=C2/C(=O)/C(=C/c3ccc(C#N)cc3)C23CCN(C(=N)N2CCOCC2)CC3)cc1` [RA484, 4,4'-((1E,1'E)-(7-(imino(morpholino)methyl)-2-oxo-7-azaspiro[3.5]nonane-1,3-diylidene)bis(methaneylylidene))dibenzonitrile] has an IC50 (PEA1 cells) of 479 nM and an IC50 (PEA2) of 522 nM.
With `N.N.[Cl][Pt][Cl]` [cisplatin, reference compound] the “tumor burden by bioluminescence” value [3] was “significantly better delayed, but did not reduce, tumor burden”.
